In paper PMC8154581, “Discovery of Novel Thiophene-arylamide Derivatives as DprE1 Inhibitors with Potent Antimycobacterial Activities” (Journal of Medicinal Chemistry, 2021):
Values after ≈ are worked out from the molar mass of the structure shown. Read-outs that look alike come from different tables or passages of the source.

Columns and labels:
[1] = tested on: M. tuberculosis H37Rv; experiment: MIC against replicating M. tuberculosis H37Rv, microplate Alamar blue assay (MABA); assay type: cell-based
[2] = tested on: Vero cells; experiment: Cytotoxicity assay in Vero cells (MTT); assay type: cell-based; conditions: for IC50: Chlorocebus sabaeus, Vero cells, 48 h, read-out: IC50 (Vero)
[3] = Mycobacterium tuberculosis, H37RV, against M. tuberculosis H37Rv, Tables 1-3, read-out: MIC
[4] = Mycobacterium tuberculosis, H37RV, supplementary CSV, same values as Tables 1-3, read-out: Minimal inhibit concentration
[5] = against M. tuberculosis H37Rv, Tables 1-3

Molecule | melting point | MIC [1, 3] | MIC [1, 4] | MIC [1, 5] | SI [2] | IC50 [2] | MIC ([1]; Mycobacterium tuberculosis, H37RV, against M. tuberculosis H37Rv, Tables 1-3) | MIC ([1]; Mycobacterium tuberculosis, H37RV, Table 4, read-out: MIC H37Rv) | Minimal inhibit concentration ([1]; supplementary CSV, same values as Tables 1-3)
CCCNC(=O)c1ccc(C(=O)Nc2sccc2C(=O)NC(=O)OCC)cc1 [Compound 23a, Ethyl (2-(4-(Propylcarbamoyl)benzamido)thiophene-3-carbonyl)carbamate] | 219 to 220 °C | 0.2 µg/mL (≈ 0.496 µM) | 0.2 µg/mL (≈ 0.496 µM) | 0.20 µg/mL (≈ 0.496 µM) | >320 | > 64 µg/mL |  |  | 
CCOC(=O)NC(=O)c1ccsc1NC(=O)c1ccc(C(=O)N(C)CC)cc1 [Compound 23b, Ethyl (2-(4-(Ethyl(methyl)carbamoyl)benzamido)thiophene-3-carbonyl)carbamate] | 161 to 162 °C | 0.95 µg/mL (≈ 2.35 µM) | 0.95 µg/mL (≈ 2.35 µM) |  | >67 | > 64 µg/mL |  |  | 
CCOC(=O)NC(=O)c1ccsc1NC(=O)c1ccc(C(=O)N(CC)CC)cc1 [Compound 23c, Ethyl (2-(4-(Diethylcarbamoyl)benzamido)thiophene-3-carbonyl)carbamate] | 178 to 179 °C | 0.28 µg/mL (≈ 0.671 µM) | 0.28 µg/mL (≈ 0.671 µM) |  | >229 | > 64 µg/mL |  |  | 
CCOC(=O)NC(=O)c1ccsc1NC(=O)c1ccc(C(=O)NC23CC4CC(CC(C4)C2)C3)cc1 [Compound 23d, Ethyl (2-(4-(((3S,5S,7S)-Adamantan-1-yl)carbamoyl)benzamido)thiophene-3-carbonyl)carbamate] | 157 to 158 °C | 0.12 µg/mL (≈ 0.242 µM) | 0.12 µg/mL (≈ 0.242 µM) |  | 16 | 1.96 µg/mL (≈ 3.95 µM) |  |  | 
CCOC(=O)NC(=O)c1ccsc1NC(=O)c1ccc(C(=O)NC2CCCCC2)cc1 [Compound 23e, Ethyl (2-(4-(Cyclohexylcarbamoyl)benzamido)thiophene-3-carbonyl)carbamate] | > 250 °C | 0.5 µg/mL (≈ 1.13 µM) | 0.5 µg/mL (≈ 1.13 µM) |  | >128 | > 64 µg/mL |  |  | 
CCOC(=O)NC(=O)c1ccsc1NC(=O)c1ccc(C(=O)NC2CCC(C)(C)CC2)cc1 [Compound 23f, Ethyl (2-(4-((4,4-Dimethylcyclohexyl)carbamoyl)benzamido)thiophene-3-carbonyl)carbamate] | > 250 °C | 0.94 µg/mL (≈ 1.99 µM) | 0.94 µg/mL (≈ 1.99 µM) |  | >68 | > 64 µg/mL |  |  | 
CCOC(=O)NC(=O)c1ccsc1NC(=O)c1ccc(C(=O)Nc2ccccc2)cc1 [Compound 23g, Ethyl (2-(4-(Phenylcarbamoyl)benzamido)thiophene-3-carbonyl)carbamate] | > 250 °C | 0.12 µg/mL (≈ 0.274 µM) | 0.12 µg/mL (≈ 0.274 µM) |  | 191 | 23 µg/mL (≈ 52.5 µM) |  |  | 
CCOC(=O)NC(=O)c1ccsc1NC(=O)c1ccc(C(=O)N2CCCC2)cc1 [Compound 23i, Ethyl (2-(4-(Pyrrolidine-1-carbonyl)benzamido)thiophene-3-carbonyl)carbamate] |  | 0.2 µg/mL (≈ 0.481 µM) | 0.2 µg/mL (≈ 0.481 µM) |  |  | > 64 µg/mL |  |  | 
CCOC(=O)NC(=O)c1ccsc1NC(=O)c1ccc(C(=O)N2CCCCCC2)cc1 [Compound 23k, Ethyl (2-(4-(Azepane-1-carbonyl)benzamido)thiophene-3-carbonyl)carbamate] |  | 0.22 µg/mL (≈ 0.496 µM) | 0.22 µg/mL (≈ 0.496 µM) |  |  | 48.4 µg/mL (≈ 109 µM) |  |  | 
CCOC(=O)NC(=O)c1ccsc1NC(=O)c1ccc(C(=O)N2CCC(C)CC2)cc1 [Compound 23l, Ethyl (2-(4-(4-Methylpiperidine-1-carbonyl)benzamido)thiophene-3-carbonyl)carbamate] |  | 0.03 µg/mL (≈ 0.0676 µM) | 0.03 µg/mL (≈ 0.0676 µM) |  |  | > 64 µg/mL |  |  | 
CCOC(=O)NC(=O)c1ccsc1NC(=O)c1ccc(C(=O)N2CCC(F)(F)CC2)cc1 [Compound 23n, Ethyl (2-(4-(4,4-Difluoropiperidine-1-carbonyl)benzamido)thiophene-3-carbonyl)carbamate] |  | 0.25 µg/mL (≈ 0.537 µM) | 0.25 µg/mL (≈ 0.537 µM) |  |  | > 64 µg/mL |  |  | 
CCOC(=O)NC(=O)c1ccsc1NC(=O)c1ccc(C(=O)N2CCOCC2)cc1 [Compound 23o, Ethyl (2-(4-(Morpholine-4-carbonyl)benzamido)thiophene-3-carbonyl)carbamate] | 159 to 160 °C | 1.66 µg/mL (≈ 3.85 µM) | 1.66 µg/mL (≈ 3.85 µM) |  |  |  |  |  | 
CCOC(=O)NC(=O)c1ccsc1NC(=O)c1cccc(C(=O)N2CCCCC2)c1 [Compound 24a, Ethyl (2-(3-(Piperidine-1-carbonyl)benzamido)thiophene-3-carbonyl)carbamate] |  | 3.7 µg/mL (≈ 8.61 µM) | 3.7 µg/mL (≈ 8.61 µM) |  |  |  |  |  | 
CCOC(=O)NC(=O)c1ccsc1NC(=O)c1ccc(C(=O)N2CCCCC2)cc1F [Compound 24b, Ethyl (2-(2-Fluoro-4-(piperidine-1-carbonyl)benzamido)thiophene-3-carbonyl)carbamate] |  | 0.12 µg/mL (≈ 0.268 µM) | 0.12 µg/mL (≈ 0.268 µM) |  |  | > 64 µg/mL |  |  | 
CCOC(=O)NC(=O)c1ccsc1NC(=O)c1ccc(C(=O)N2CCCCC2)c(C)c1 [Compound 24g, Ethyl (2-(3-Methyl-4-(piperidine-1-carbonyl)benzamido)thiophene-3-carbonyl)carbamate] |  |  | 0.12 µg/mL (≈ 0.271 µM) |  |  | 53.1 µg/mL (≈ 120 µM) | 0.12 µg/mL (≈ 0.271 µM) |  | 
CCOC(=O)NC(=O)c1ccsc1NC(=O)c1ccc2cc(C(=O)N3CCCCC3)ccc2c1 [Compound 24h, Ethyl (2-(6-(Piperidine-1-carbonyl)-2-naphthamido)thiophene-3-carbonyl)carbamate] | 177 to 178 °C | 3.13 µg/mL (≈ 6.53 µM) | 3.13 µg/mL (≈ 6.53 µM) |  |  |  |  |  | 

Molecule | melting point | MIC [1, 3] | MIC [1, 4] | MIC [1, 5] | SI [2] | IC50 [2] | MIC ([1]; Mycobacterium tuberculosis, H37RV, against M. tuberculosis H37Rv, Tables 1-3) | MIC ([1]; Mycobacterium tuberculosis, H37RV, Table 4, read-out: MIC H37Rv) | Minimal inhibit concentration ([1]; supplementary CSV, same values as Tables 1-3)
CCOC(=O)NC(=O)c1ccsc1NC(=O)c1ccc(-c2ccc(C(=O)N3CCCCC3)cc2)cc1 [Compound 24i, Ethyl (2-(4′-(Piperidine-1-carbonyl)-[1,1′-biphenyl]-4-carboxamido)thiophene-3-carbonyl)carbamate] |  | 7.76 µg/mL (≈ 15.3 µM) | 7.76 µg/mL (≈ 15.3 µM) |  |  |  |  |  | 
CCOC(=O)NC(=O)c1ccsc1NC(=O)c1cc(C(=O)N2CCCCC2)c[nH]1 [Compound 24l, Ethyl (2-(4-(Piperidine-1-carbonyl)-1H-pyrrole-2-carboxamido)thiophene-3-carbonyl)carbamate] | 183 to 184 °C | 1.77 µg/mL (≈ 4.23 µM) | 1.77 µg/mL (≈ 4.23 µM) |  |  |  |  |  | 
CCNC(=O)NC(=O)c1ccsc1NC(=O)c1ccc(C(=O)N2CCCCC2)cc1 [Compound 25c, N-(Ethylcarbamoyl)-2-(4-(piperidine-1-carbonyl)benzamido)thiophene-3-carboxamide] | 223 to 224 °C | > 32 µg/mL | > 32 µg/mL |  |  |  |  |  | 
NC(=O)c1ccsc1NC(=O)c1ccc(C(=O)N2CCCCC2)cc1 [Compound 25d, 2-(4-(Piperidine-1-carbonyl)benzamido)thiophene-3-carboxamide] |  | > 32 µg/mL | > 32 µg/mL |  |  |  |  |  | 
COC(=O)C1CN(C(=O)c2ccsc2NC(=O)c2ccc(C(=O)N3CCCCC3)cc2)C1 [Compound 25e, Methyl 1-(2-(4-(Piperidine-1-carbonyl)benzamido)thiophene-3-carbonyl)azetidine-3-carboxylate] | 154 to 155 °C | > 32 µg/mL | > 32 µg/mL |  |  |  |  |  | 
COC(=O)C1CCN(C(=O)c2ccsc2NC(=O)c2ccc(C(=O)N3CCCCC3)cc2)CC1 [Compound 25f, Methyl 1-(2-(4-(Piperidine-1-carbonyl)benzamido)thiophene-3-carbonyl)piperidine-4-carboxylate] | 169 to 170 °C | 15.5 µg/mL (≈ 32.1 µM) | 15.5 µg/mL (≈ 32.1 µM) |  |  |  |  |  | 
COC(=O)N1CCN(C(=O)c2ccsc2NC(=O)c2ccc(C(=O)N3CCCCC3)cc2)CC1 [Compound 25g, Methyl 4-(2-(4-(Piperidine-1-carbonyl)benzamido)thiophene-3-carbonyl)piperazine-1-carboxylate] | 113 to 114 °C | > 32 µg/mL | > 32 µg/mL |  |  |  |  |  | 
CCOC(=O)N1CCN(C(=O)c2ccsc2NC(=O)c2ccc(C(=O)N3CCCCC3)cc2)CC1 [Compound 25h, Ethyl 4-(2-(4-(Piperidine-1-carbonyl)benzamido)thiophene-3-carbonyl)piperazine-1-carboxylate] | 134 to 135 °C | > 32 µg/mL | > 32 µg/mL |  |  |  |  |  | 
Cc1cnc(NC(=O)c2ccsc2NC(=O)c2ccc(C(=O)N3CCCCC3)cc2)s1 [Compound 25i, N-(5-Methylthiazol-2-yl)-2-(4-(piperidine-1-carbonyl)benzamido)thiophene-3-carboxamide] | 236 to 238 °C | > 32 µg/mL | > 32 µg/mL |  |  |  |  |  | 
Cc1cnc(NC(=O)c2ccsc2NC(=O)c2ccc(C(=O)N3CCCCC3)cc2)cn1 [Compound 25m, N-(5-Methylpyrazin-2-yl)-2-(4-(piperidine-1-carbonyl)benzamido)thiophene-3-carboxamide] | 177 to 179 °C | > 32 µg/mL | > 32 µg/mL |  |  |  |  |  | 
Cc1cccc(NC(=O)c2ccsc2NC(=O)c2ccc(C(=O)N3CCCCC3)cc2)n1 [Compound 25n, N-(6-Methylpyridin-2-yl)-2-(4-(piperidine-1-carbonyl)benzamido)thiophene-3-carboxamide] | 171 to 174 °C | > 32 µg/mL | > 32 µg/mL |  |  |  |  |  | 
Cc1cc(C)nc(NC(=O)c2ccsc2NC(=O)c2ccc(C(=O)N3CCCCC3)cc2)n1 [Compound 25p, N-(4,6-Dimethylpyrimidin-2-yl)-2-(4-(piperidine-1-carbonyl)benzamido)thiophene-3-carboxamide] | 189 to 190 °C | > 32 µg/mL | > 32 µg/mL |  |  |  |  |  | 
Cc1ccc2sc(NC(=O)c3ccsc3NC(=O)c3ccc(C(=O)N4CCCCC4)cc3)nc2c1 [Compound 25q, N-(5-Methylbenzo[d]thiazol-2-yl)-2-(4-(piperidine-1-carbonyl)benzamido)thiophene-3-carboxamide] | > 250 °C | > 32 µg/mL | > 32 µg/mL |  |  |  |  |  | 
COc1nc2ccc(Br)cc2cc1[C@@H](c1ccccc1)[C@@](O)(CCN(C)C)c1cccc2ccccc12 [bedaquiline, reference compound] |  |  |  |  |  |  |  | 0.036 µg/mL (≈ 0.0648 µM) | 
N-(4-Methylpyridin-2-yl)-2-(4-(piperidine-1-carbonyl)benzamido)thiophene-3-carboxamide [Compound 25o] |  |  |  | >32 µg/mL |  |  |  |  | >32 µg/mL
